This is an account of results in PubChem BioAssay AID330 (DTP/NCI, 2004).

Values joined by “and” are separate entries in the source; they are usually repeats but may differ in a detail not shown here. Equal entries are not always repeated. Inconclusive results and toxic doses are left out.

In the test the test system is P388 leukemia ip, CD2F1 mice, survival T/C. In words: NCI In Vivo Anticancer Drug Screen. Data for tumor model P388 Leukemia (intraperitoneal) in CD2F1 (CDF1) mice. As to conditions: endpoint: median survival time, higher = longer survival. Summed up:
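Mice carrying the transplanted tumor received test compound or vehicle. Survival was recorded in each group, and the value is the treated-group measurement divided by that of the vehicle-treated control group.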

Where [1] appears, read: dose: 12.5 mg/kg/injection, schedule: Q01DX009 (ip), vehicle: other.
[2] abbreviates: dose: 25.0 mg/kg/injection, schedule: Q01DX009 (ip), vehicle: other.
The mark [3] stands for this setting: dose: 3.12 mg/kg/injection, schedule: Q01DX005 (ip), vehicle: saline.
Where [4] appears, read: dose: 6.25 mg/kg/injection, schedule: Q01DX005 (ip), vehicle: saline.
Where [5] appears, read: dose: 12.5 mg/kg/injection, schedule: Q01DX005 (ip), vehicle: saline.
The mark [6] stands for this setting: dose: 25.0 mg/kg/injection, schedule: Q01DX005 (ip), vehicle: saline.
[7] abbreviates: dose: 50.0 mg/kg/injection, schedule: Q01DX009 (ip), vehicle: saline with Tween-80.
[8] abbreviates: dose: 100.0 mg/kg/injection, schedule: Q01DX009 (ip), vehicle: saline with Tween-80.
The mark [9] stands for this setting: dose: 60.0 mg/kg/injection, schedule: Q01DX005 (ip), vehicle: saline with Tween-80.
The mark [10] stands for this setting: dose: 50.0 mg/kg/injection, schedule: Q01DX005 (ip), vehicle: Klucel (hydroxypropylcellulose) (HPC).
The mark [11] stands for this setting: dose: 100.0 mg/kg/injection, schedule: Q01DX005 (ip), vehicle: Klucel (hydroxypropylcellulose) (HPC).
The mark [12] stands for this setting: dose: 200.0 mg/kg/injection, schedule: Q01DX005 (ip), vehicle: Klucel (hydroxypropylcellulose) (HPC).
[13] abbreviates: dose: 100.0 mg/kg/injection, schedule: Q04DX003 (ip), vehicle: saline.
[14] abbreviates: dose: 200.0 mg/kg/injection, schedule: Q04DX003 (ip), vehicle: saline.
Setting [15] is: dose: 400.0 mg/kg/injection, schedule: Q04DX003 (ip), vehicle: saline.
The mark [16] stands for this setting: dose: 12.5 mg/kg/injection, schedule: Q01DX009 (ip), vehicle: saline with Tween-80.

For `COc1c2c(c(OC)c3c(OC)c4ccccc4c(OC)c13)CC(=O)CC2`, the T/C by setting is: (dose: 1.56 mg/kg/injection, schedule: Q01DX009 (ip), vehicle: other) 105 % of control; (dose: 3.13 mg/kg/injection, schedule: Q01DX009 (ip), vehicle: other) 101 % of control; (dose: 6.25 mg/kg/injection, schedule: Q01DX009 (ip), vehicle: other) 105 % of control; under setting [1], 101 % of control; under setting [2], 91 % of control.

In the case of `CC1=CC(C)C[N+](C)(C)C1` (configuration not stated), the T/C by setting is: under setting [3], 104 % of control; under setting [4], 103 % of control; under setting [5], 100 % of control; under setting [6], 94 % of control.

For `CCCC(=O)OCc1cc(=O)n(C)c2c3c4c(cc12)c(C)cc(=O)n4CO3`, the T/C was 157 % of control under setting [1]; 151 % of control and 171 % of control under setting [2]; 163 % of control (dose: 50.0 mg/kg/injection, schedule: Q01DX009 (ip), vehicle: other).

As to `NCc1ccc(Cc2ccc(CN)cc2)cc1`, the T/C is 100 % of control under setting [7] and 100 % of control under setting [8].

For the compound `OC1COc2ccccc2OCCOCCOc2ccccc2OC1`, the T/C is 100 % of control (dose: 15.0 mg/kg/injection, schedule: Q01DX005 (ip), vehicle: saline with Tween-80); 94 % of control (dose: 30.0 mg/kg/injection, schedule: Q01DX005 (ip), vehicle: saline with Tween-80); 95 % of control and 96 % of control under setting [9].

Regarding `COC(=O)C(Cc1ccccc1C(N)=O)(OC)OC`, the T/C runs as follows: (dose: 50.0 mg/kg/injection, schedule: Q01DX005 (ip), vehicle: saline) 98 % of control; (dose: 100.0 mg/kg/injection, schedule: Q01DX005 (ip), vehicle: saline) 99 % of control; (dose: 200.0 mg/kg/injection, schedule: Q01DX005 (ip), vehicle: saline) 98 % of control.

With `C[n+]1c(C2(C)CCCO2)sc2ccccc21` (configuration not stated), the T/C (dose: 60.0 mg/kg/injection, schedule: Q01DX005 (ip), vehicle: saline) is 103 % of control.

For `O=S1(=O)N=C(Sc2nc3ccccc3o2)c2ccccc21`, the T/C runs as follows: (dose: 100.0 mg/kg/injection, schedule: Q04DX002 (ip), vehicle: saline with Tween-80) 102 % of control; (dose: 200.0 mg/kg/injection, schedule: Q04DX002 (ip), vehicle: saline with Tween-80) 107 % of control; (dose: 400.0 mg/kg/injection, schedule: Q04DX002 (ip), vehicle: saline with Tween-80) 115 % of control.

Take `Cc1ccnc(NCCCNc2nccc(C)n2)n1`: the T/C under setting [10] was 102 % of control, the T/C under setting [11] was 96 % of control and the T/C under setting [12] is 88 % of control.

With `O=C1OC2(CC1n1cnc3ccccc3c1=O)C(=O)Nc1ccccc12` (configuration not stated), the T/C by setting is: (dose: 8.75 mg/kg/injection, schedule: Q01DX005 (ip), vehicle: Klucel (hydroxypropylcellulose) (HPC)) 111 % of control; (dose: 17.5 mg/kg/injection, schedule: Q01DX005 (ip), vehicle: Klucel (hydroxypropylcellulose) (HPC)) 90 % of control; (dose: 35.0 mg/kg/injection, schedule: Q01DX005 (ip), vehicle: Klucel (hydroxypropylcellulose) (HPC)) 91 % of control.

For the compound `CCC(c1ccccc1)c1noc(CCN(CC)CC)n1` (configuration not stated), the T/C is 101 % of control (dose: 50.0 mg/kg/injection, schedule: Q01DX009 (ip), vehicle: Klucel (hydroxypropylcellulose) (HPC)); 99 % of control (dose: 100.0 mg/kg/injection, schedule: Q01DX009 (ip), vehicle: Klucel (hydroxypropylcellulose) (HPC)); 113 % of control (dose: 200.0 mg/kg/injection, schedule: Q01DX009 (ip), vehicle: Klucel (hydroxypropylcellulose) (HPC)).

`OCC#CCOCC(O)CCl` (configuration not stated): the T/C by setting is: (dose: 12.5 mg/kg/injection, schedule: Q01DX009 (ip), vehicle: water) 103 % of control; (dose: 25.0 mg/kg/injection, schedule: Q01DX009 (ip), vehicle: water) 108 % of control; (dose: 50.0 mg/kg/injection, schedule: Q01DX009 (ip), vehicle: water) 107 % of control; (dose: 100.0 mg/kg/injection, schedule: Q01DX009 (ip), vehicle: water) 98 % of control; (dose: 200.0 mg/kg/injection, schedule: Q01DX009 (ip), vehicle: water) 103 % of control.

On to `OC1CCC(O)C1(Cl)Cl` (configuration not stated), for which the T/C is, setting by setting: (dose: 25.0 mg/kg/injection, schedule: Q04DX003 (ip), vehicle: saline) 99 % of control and 96 % of control; (dose: 50.0 mg/kg/injection, schedule: Q04DX003 (ip), vehicle: saline) 98 % of control and 107 % of control; under setting [13], 98 % of control and 103 % of control and 118 % of control; under setting [14], 98 % of control and 101 % of control and 124 % of control; under setting [15], 117 % of control.

Regarding `CC1(C)OC1CS(=O)c1ccccc1` (configuration not stated), the T/C is, setting by setting: under setting [7], 101 % of control; (dose: 66.0 mg/kg/injection, schedule: Q01DX009 (ip), vehicle: saline with Tween-80) 99 % of control; under setting [8], 99 % of control and 121 % of control; (dose: 200.0 mg/kg/injection, schedule: Q01DX009 (ip), vehicle: saline with Tween-80) 114 % of control.

Turning to `CC(=O)Oc1c(N)c(C)cc(C)c1F`, the T/C was 101 % of control (dose: 1.56 mg/kg/injection, schedule: Q01DX009 (ip), vehicle: saline with Tween-80); 93 % of control (dose: 3.12 mg/kg/injection, schedule: Q01DX009 (ip), vehicle: saline with Tween-80); 100 % of control (dose: 6.25 mg/kg/injection, schedule: Q01DX009 (ip), vehicle: saline with Tween-80); 96 % of control under setting [16].

`O=[n+]1ccn([O-])c2ccccc21.[O-][Cl+3]([O-])([O-])O.[Zn+2]`: the T/C (dose: 100.0 mg/kg/injection, schedule: Q04DX003 (ip), vehicle: saline with Tween-80) was 98 % of control.

With `CCCCN(C(C)=O)c1nc2ccccc2n1C`, the T/C under setting [13] is 97 % of control, the T/C under setting [14] is 98 % of control and the T/C under setting [15] is 95 % of control.

`CC(C)(C)N(C/C=C/CN(Cc1ccccc1)Cc1ccccc1)C(C)(C)C`: the T/C is 87 % of control under setting [7] and 95 % of control under setting [8].

As to `CN(C)c1ccc(N)c(N)c1`, the T/C was 99 % of control under setting [3]; 99 % of control under setting [4]; 103 % of control under setting [5]; 105 % of control and 106 % of control under setting [6]; 98 % of control (dose: 100.0 mg/kg/injection, schedule: Q01DX009 (ip), vehicle: saline).

For the compound `N#CC(Br)(CBr)COc1ccc(Cl)cc1Cl` (configuration not stated), the T/C under setting [16] was 100 % of control; the T/C (dose: 25.0 mg/kg/injection, schedule: Q01DX009 (ip), vehicle: saline with Tween-80) was 118 % of control; the T/C under setting [7] was 108 % of control.

In the case of `S=c1sc(-c2ccc(Cl)cc2)nn1CSc1nc2ccccc2o1`, the T/C is 97 % of control under setting [9]; 101 % of control (dose: 120.0 mg/kg/injection, schedule: Q01DX005 (ip), vehicle: saline with Tween-80); 95 % of control (dose: 240.0 mg/kg/injection, schedule: Q01DX005 (ip), vehicle: saline with Tween-80).

As to `CC(C)(C)C1=CC(CC(N)=O)(C(C)(C)C)OC1=O` (configuration not stated), the T/C was 98 % of control under setting [10], 100 % of control under setting [11] and 105 % of control under setting [12].

For `Cc1cnc(I)[nH]1`, the T/C is 102 % of control (dose: 100.0 mg/kg/injection, schedule: Q01DX001 (ip), vehicle: saline); 107 % of control under setting [13]; 105 % of control (dose: 200.0 mg/kg/injection, schedule: Q01DX001 (ip), vehicle: saline); 112 % of control under setting [14]; 92 % of control under setting [15].

`Nc1nc2c(ncn2C2OC(CO)C(O)C2O)c(=O)o1` (configuration not stated): the T/C reads like this: under setting [10], 106 % of control; under setting [11], 112 % of control; under setting [12], 116 % of control; (dose: 400.0 mg/kg/injection, schedule: Q01DX005 (ip), vehicle: Klucel (hydroxypropylcellulose) (HPC)) 111 % of control.

As to `COc1nccn2c(C)nnc12`, the T/C was 100 % of control (dose: 100.0 mg/kg/injection, schedule: Q01DX001 (ip), vehicle: Klucel (hydroxypropylcellulose) (HPC)) and 100 % of control (dose: 200.0 mg/kg/injection, schedule: Q01DX001 (ip), vehicle: Klucel (hydroxypropylcellulose) (HPC)).
